According to patent US9650616B2, “Methods for increasing grain yield” (University of Florida Research Foundation, Inc., priority 2014, dated 2017):
Substitutions are numbered along the chain they refer to.

What was measured:
[1] = target: T1, maize endosperm AGPase, large subunit variant GGR (Q96G, D161G, A443R; numbering of SEQ ID NO: 20) (Zea mays, UniProt P55241+Q84PF5, A443R/D161G/Q96G); assay: Pi inhibition in the absence of 3-PGA, GGR; assay type: biochemical
T1 sequence (P55241 46-516 A443R/D161G/Q96G): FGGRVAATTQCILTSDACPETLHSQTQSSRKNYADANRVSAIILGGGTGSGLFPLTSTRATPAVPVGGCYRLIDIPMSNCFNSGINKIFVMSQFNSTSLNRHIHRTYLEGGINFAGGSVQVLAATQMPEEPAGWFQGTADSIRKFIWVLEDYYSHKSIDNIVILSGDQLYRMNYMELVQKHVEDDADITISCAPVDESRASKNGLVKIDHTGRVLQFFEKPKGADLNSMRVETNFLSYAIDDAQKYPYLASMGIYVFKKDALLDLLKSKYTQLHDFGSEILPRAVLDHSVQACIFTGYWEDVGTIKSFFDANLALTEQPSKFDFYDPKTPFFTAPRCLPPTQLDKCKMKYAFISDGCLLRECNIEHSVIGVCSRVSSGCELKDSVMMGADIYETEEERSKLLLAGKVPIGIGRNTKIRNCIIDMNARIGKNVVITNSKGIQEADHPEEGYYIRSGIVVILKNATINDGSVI
T1 sequence (Q84PF5 1-474): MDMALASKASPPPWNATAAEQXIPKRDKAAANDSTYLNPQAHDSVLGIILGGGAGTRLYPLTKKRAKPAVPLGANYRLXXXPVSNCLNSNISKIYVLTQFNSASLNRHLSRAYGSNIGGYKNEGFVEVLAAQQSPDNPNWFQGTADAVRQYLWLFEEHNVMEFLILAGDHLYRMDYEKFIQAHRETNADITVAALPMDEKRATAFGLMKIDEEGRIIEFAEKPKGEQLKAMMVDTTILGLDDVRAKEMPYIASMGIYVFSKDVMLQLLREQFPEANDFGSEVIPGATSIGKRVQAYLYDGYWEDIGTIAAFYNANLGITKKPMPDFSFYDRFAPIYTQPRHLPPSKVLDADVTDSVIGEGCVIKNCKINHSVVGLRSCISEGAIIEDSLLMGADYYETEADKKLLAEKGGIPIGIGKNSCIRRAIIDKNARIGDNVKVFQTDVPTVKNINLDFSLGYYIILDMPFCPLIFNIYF
Method: Next, the kinetics of the GGR mutant were further investigated by following Pi inhibition in the presence and absence of 3-PGA. Experiments were performed by keeping both substrates constant and non-saturating at several fixed concentrations of Pi.
A similar examination of the Pi inhibition was then followed with GGR in the absence of 3-PGA.

[2] = target: T2, maize endosperm AGPase, wild type (Bt2/Sh2) (Zea mays, UniProt P55241+Q84PF5); assay: Apparent kinetic constants with 3-PGA, 37° C., wild type; assay type: biochemical; conditions: read-out: ATP Km, Wt
T2 sequence (P55241 46-516): T1 sequence (P55241 46-516 A443R/D161G/Q96G) with G51Q, G116D, R398A
T2 sequence (Q84PF5 1-474): T1 sequence (Q84PF5 1-474)
Source text: The small and large subunit plasmids of maize endosperm AGPase (pMONcBt2 and pMONcSh2, respectively) (Giroux et al., 1996) were expressed in E. coli AC70R1-504 cells (Iglesias et al., 1993) as previously described (Boehlein et al., 2008).
An endpoint assay was used to determine the rate of the AGPase reaction by coupling the formation of PPi to a decrease in NADH concentration (Boehlein et al., 2008). […] The Michaelis constants (Km) were obtained by varying one substrate in the presence of saturating concentrations of the second substrate. The activation constants were obtained by varying the activator at fixed levels of both substrates. All reactions were performed at 37° C. and mixes were prewarmed before starting the reaction with enzyme. […] The absorbance at 340 nm was monitored after 30 min and the amount of PPi produced was determined from a standard curve using PPi in complete reaction mixtures lacking AGPase. Blank samples contained complete reaction mixtures without enzyme and the change in absorbance between the blank and the reaction was used to calculate the amount of PPi produced.
The apparent Michaelis constant and maximum velocity of each reaction was calculated from a V vs. S plots using nonlinear regression analysis and the following equation, v=VmaxS/(Km+S), where v is the measured velocity, Vmax is the maximum velocity, S is the substrate concentration. […]

With `Nc1ncnc2c1ncn2[C@@H]1O[C@H](COP(=O)(O)OP(=O)(O)OP(=O)(O)O)[C@@H](O)[C@H]1O` [ATP] the “ATP Km, fold lower than wt AGPase” value ([1]; Pi inhibition assay) was “approximately 40 fold”, the Km ([1]; read-out: Km (ATP), ATP varied, Pi inhibition, NC) was 540 µM and the Km [2] was 69 µM.
